Experiments:
MYC-CAP-CR cells [1] = assay: Short-term cell proliferation assay, MYC-CAP-CR; type: cell-based, murine; conditions: androgen-containing media
Description: (§1) MYC-CaP-CR cells (Ellis L. et al., 2012. Prostate 72(6):587-591) were selected for castration resistance from genetically engineered MYC-CaP cells that express MYC from an AR-responsive promoter (Watson P A, et al., 2005. Cancer Res 65(24):11565-11571). Castration resistance in these cells is associated with the overexpression of full-length AR rather than an AR variant, such as AR-V7 in 22rv1 (Olson B M, et al., 2017. Cancer immunology research 5(12):1074-1085).

MYC-CAP-CR cells [2] = assay: Long-term clonogenic assay, MYC-CaP-CR; type: cell-based, murine; conditions: 1 μM Senexin B, 1 μM 15u, 5 μM enzalutamide
Description: as §1

MYC-CaP-CR tumors = MYC-CaP-CR tumors subcutaneous in intact FVB male mice; type: in vivo, mouse
Description: as §1

[3] = test system: PSA expression in CRPC cell line C4-2; assay: PSA expression in cell culture supernatant of C4-2 cells; type: cell-based; conditions: C4-2 culture supernatant, 4-day treatment, FBS-supplemented regular media
Description: CDK8/19 inhibition decreases the expression of certain androgen-receptor (AR) inducible genes including PSA, the most common marker of prostate cancer, and the growth of castration-refractory prostate cancers (CRPC).

[4] = test system: 4T1 murine TNBC lung metastasis; assay: 4T1 breast cancer metastasis survival after primary tumor removal; type: in vivo, mouse; conditions: Senexin B medicated food (350 ppm) plus one oral dose 50 mg/kg
Protocol: 4T1 is a murine triple-negative breast cancer (TNBC) cell line, which is highly metastatic to the lungs. […] Parental and CDK8-knockdown 4T1 cells (n=10) were injected orthotopically in the mammary fat pad and the primary tumors were removed 17 days later. Following surgery, all the mice eventually died with lung metastases. […] However, the loss of CDK8 was associated with a strong increase in the survival of mice (FIG. 10C). […]

[5] = test system: CRPC cell line 22rv1 xenograft; conditions: Senexin B 133 mg/kg once a day or 66 mg/kg twice a day (FIG. 8D)
CDK8/19 = assay: NFκB reporter assay in parental 293 reporter cells; type: cell-based; conditions: NFκB Activity Assay as described in Example 1; read-out: Inhibition Potency HEK293-NFkB-Luc Assay
Description: We have used a cell-based assay to measure the inhibition of CDK8/19 activity by thienopyridine derivatives. This assay, based on the role of CDK8/19 in NFκB-driven transcription (Chen, 2017), measures the effects of CDK8/19 on the expression of firefly luciferase reporter from a NFκB-dependent promoter in 293 cells. Lentiviral vector pHAGE-NFKB-TA-LUC-UBC-dTomato-W (Addgene #49335) was introduced into 293 cells and a clonal cell line showing the strongest induction of luciferase expression upon TNFα treatment was established and used as the reporter cell line. As a control for CDK8/19 dependence of NFκB inhibition, we have also introduced the same reporter construct into 293 cells with CRISPR/CAS9 knockout of both CDK8 and CDK19.
FIG. 2C and Table 1 compares the IC50 values for different thienopyridines measured in the NFκB reporter assay in parental 293-derived reporter cell line to the cell-based activity values measured for the same compounds by Saito (2013) based on their effect on alkaline phosphatase (ALPase), an indicator of differentiation to osteoblasts in the mouse bone marrow stromal cell line ST2. The latter effects are expressed as EC200, a concentration that enhances ALPase activity to 200% of control.

CDC2L5 = target: T1, CDC2L5 (Homo sapiens, UniProt Q14004); assay: KINOMEscan scanMAX; type: binding; conditions: CDC2L5, 2000 nM
T1 construct: purchased DiscoverX (KINOMEscan scanMAX service)
T1 sequence (Q14004 whole entry): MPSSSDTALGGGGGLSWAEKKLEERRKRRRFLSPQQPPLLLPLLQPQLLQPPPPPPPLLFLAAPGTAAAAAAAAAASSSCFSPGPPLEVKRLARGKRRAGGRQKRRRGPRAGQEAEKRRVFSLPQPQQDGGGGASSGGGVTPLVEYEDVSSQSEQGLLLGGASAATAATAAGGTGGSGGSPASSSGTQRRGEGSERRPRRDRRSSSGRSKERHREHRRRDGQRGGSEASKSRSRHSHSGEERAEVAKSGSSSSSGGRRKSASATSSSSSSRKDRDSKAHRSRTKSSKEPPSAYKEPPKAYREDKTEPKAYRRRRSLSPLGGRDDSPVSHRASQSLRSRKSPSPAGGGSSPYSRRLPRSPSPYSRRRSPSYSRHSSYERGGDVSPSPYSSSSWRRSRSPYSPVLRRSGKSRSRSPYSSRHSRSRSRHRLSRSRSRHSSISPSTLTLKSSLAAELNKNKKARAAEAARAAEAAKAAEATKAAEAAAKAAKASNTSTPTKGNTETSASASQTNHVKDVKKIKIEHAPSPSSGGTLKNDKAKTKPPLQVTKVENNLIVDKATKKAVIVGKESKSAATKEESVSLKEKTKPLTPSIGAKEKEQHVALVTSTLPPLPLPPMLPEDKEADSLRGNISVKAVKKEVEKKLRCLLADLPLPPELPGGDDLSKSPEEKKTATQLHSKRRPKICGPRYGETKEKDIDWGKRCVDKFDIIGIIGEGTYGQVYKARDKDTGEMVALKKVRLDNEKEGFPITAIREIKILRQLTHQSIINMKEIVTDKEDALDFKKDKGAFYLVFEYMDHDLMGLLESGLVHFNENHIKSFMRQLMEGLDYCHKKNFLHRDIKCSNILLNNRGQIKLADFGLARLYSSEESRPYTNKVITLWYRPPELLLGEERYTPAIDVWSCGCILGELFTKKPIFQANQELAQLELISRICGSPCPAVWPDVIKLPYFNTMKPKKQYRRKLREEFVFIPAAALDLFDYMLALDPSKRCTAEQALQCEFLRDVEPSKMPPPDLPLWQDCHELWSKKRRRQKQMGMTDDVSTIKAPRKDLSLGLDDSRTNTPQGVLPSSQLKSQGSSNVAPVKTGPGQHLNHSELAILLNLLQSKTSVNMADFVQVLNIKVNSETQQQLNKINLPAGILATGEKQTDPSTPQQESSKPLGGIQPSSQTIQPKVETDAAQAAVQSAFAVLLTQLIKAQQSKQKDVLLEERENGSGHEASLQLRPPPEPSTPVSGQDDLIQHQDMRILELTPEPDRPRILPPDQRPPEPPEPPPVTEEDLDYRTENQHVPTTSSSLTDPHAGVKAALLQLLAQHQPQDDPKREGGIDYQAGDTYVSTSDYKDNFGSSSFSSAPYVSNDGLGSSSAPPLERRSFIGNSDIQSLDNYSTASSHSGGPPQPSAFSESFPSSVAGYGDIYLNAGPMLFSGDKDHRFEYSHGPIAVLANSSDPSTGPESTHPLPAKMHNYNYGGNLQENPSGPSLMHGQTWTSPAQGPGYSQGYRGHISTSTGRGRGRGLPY
Description: (§2) Nat. Biotechnol. 23, 329-336 (2005).
(§3) Percent Control (% Ctrl).
(§4) % Ctrl=100×(TS−CPOS)/(CNEG−CPOS) (eqn 1)

FLT3(ITD) = assay: KINOMEscan scanMAX; type: binding; conditions: 2000 nM
Description: as §2, §3, §4

FLT3(ITD, D835V) = assay: KINOMEscan scanMAX; type: binding; conditions: 2000 nM
Description: as §2, §3, §4

FLT3(ITD, F691L) = assay: KINOMEscan scanMAX; type: binding; conditions: 2000 nM
Description: as §2, §3, §4

PFCDPK1(P. falciparum) = target: T2, PFCDPK1(P. falciparum) (Plasmodium falciparum, UniProt P62344); assay: KINOMEscan scanMAX; type: binding; conditions: 2000 nM
T2 construct: DNA label (qPCR read-out); purchased DiscoveRx (KINOMEscan scanMAX)
T2 sequence (P62344 whole entry): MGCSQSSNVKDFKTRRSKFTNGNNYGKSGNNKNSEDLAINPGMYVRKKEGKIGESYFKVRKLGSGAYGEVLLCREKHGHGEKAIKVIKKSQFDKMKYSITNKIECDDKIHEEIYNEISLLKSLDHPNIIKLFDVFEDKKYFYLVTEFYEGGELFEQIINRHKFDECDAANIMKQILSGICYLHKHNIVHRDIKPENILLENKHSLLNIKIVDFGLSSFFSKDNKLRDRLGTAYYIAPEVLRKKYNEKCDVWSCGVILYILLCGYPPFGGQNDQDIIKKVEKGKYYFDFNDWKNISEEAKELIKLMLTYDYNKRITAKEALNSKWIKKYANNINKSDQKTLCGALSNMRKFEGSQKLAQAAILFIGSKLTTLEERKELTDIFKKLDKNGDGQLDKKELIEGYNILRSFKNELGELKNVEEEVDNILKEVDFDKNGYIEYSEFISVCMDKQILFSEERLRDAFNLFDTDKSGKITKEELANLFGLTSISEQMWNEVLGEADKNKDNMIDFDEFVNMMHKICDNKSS
Description: as §2, §3, §4

PFPK5(P. falciparum) = target: T3, PFPK5(P. falciparum) (Plasmodium falciparum, UniProt P61075); assay: KINOMEscan scanMAX; type: binding; conditions: 2000 nM
T3 construct: purchased KINOMEscan (DiscoveRx) scanMAX panel
T3 sequence (P61075 whole entry): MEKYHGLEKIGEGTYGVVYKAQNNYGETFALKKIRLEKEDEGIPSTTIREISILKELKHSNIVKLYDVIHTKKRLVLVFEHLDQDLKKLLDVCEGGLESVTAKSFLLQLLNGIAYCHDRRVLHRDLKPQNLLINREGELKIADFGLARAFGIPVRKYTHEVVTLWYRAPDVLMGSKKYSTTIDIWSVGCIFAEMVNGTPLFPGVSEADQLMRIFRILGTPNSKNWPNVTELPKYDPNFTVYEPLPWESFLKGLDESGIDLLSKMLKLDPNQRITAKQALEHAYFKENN
Description: as §2, §3, §4

PKNB(M. tuberculosis) = target: T4, PKNB(M. tuberculosis) (Mycobacterium tuberculosis, UniProt P9WI81); assay: KINOMEscan scanMAX; type: binding; conditions: 2000 nM
T4 construct: purchased DiscoveRx (KINOMEscan scanMAX panel)
T4 sequence (P9WI81 whole entry): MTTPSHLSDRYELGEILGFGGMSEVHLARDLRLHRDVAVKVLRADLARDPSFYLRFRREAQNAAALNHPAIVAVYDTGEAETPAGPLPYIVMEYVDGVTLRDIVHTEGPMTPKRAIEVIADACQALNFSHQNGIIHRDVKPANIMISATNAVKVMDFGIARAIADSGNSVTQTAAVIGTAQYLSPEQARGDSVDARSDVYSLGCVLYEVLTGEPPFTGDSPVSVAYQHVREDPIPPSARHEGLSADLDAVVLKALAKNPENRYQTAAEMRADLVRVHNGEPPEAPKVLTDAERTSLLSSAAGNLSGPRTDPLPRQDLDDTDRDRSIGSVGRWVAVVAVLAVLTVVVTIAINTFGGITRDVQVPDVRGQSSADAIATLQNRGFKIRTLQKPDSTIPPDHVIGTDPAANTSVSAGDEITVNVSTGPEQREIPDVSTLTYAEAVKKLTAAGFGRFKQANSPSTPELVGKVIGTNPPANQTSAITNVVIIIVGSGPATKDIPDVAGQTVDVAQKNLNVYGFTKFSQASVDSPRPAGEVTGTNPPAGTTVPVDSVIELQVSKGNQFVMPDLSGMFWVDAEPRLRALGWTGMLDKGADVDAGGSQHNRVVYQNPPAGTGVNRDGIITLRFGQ
Description: as §2, §3, §4

PRP4 = target: T5, PRP4 (Homo sapiens, UniProt Q13523); assay: KINOMEscan scanMAX; type: binding; conditions: PRP4, 2000 nM
T5 construct: DNA label (qPCR read-out); purchased DiscoverX (KINOMEscan)
T5 sequence (Q13523 whole entry): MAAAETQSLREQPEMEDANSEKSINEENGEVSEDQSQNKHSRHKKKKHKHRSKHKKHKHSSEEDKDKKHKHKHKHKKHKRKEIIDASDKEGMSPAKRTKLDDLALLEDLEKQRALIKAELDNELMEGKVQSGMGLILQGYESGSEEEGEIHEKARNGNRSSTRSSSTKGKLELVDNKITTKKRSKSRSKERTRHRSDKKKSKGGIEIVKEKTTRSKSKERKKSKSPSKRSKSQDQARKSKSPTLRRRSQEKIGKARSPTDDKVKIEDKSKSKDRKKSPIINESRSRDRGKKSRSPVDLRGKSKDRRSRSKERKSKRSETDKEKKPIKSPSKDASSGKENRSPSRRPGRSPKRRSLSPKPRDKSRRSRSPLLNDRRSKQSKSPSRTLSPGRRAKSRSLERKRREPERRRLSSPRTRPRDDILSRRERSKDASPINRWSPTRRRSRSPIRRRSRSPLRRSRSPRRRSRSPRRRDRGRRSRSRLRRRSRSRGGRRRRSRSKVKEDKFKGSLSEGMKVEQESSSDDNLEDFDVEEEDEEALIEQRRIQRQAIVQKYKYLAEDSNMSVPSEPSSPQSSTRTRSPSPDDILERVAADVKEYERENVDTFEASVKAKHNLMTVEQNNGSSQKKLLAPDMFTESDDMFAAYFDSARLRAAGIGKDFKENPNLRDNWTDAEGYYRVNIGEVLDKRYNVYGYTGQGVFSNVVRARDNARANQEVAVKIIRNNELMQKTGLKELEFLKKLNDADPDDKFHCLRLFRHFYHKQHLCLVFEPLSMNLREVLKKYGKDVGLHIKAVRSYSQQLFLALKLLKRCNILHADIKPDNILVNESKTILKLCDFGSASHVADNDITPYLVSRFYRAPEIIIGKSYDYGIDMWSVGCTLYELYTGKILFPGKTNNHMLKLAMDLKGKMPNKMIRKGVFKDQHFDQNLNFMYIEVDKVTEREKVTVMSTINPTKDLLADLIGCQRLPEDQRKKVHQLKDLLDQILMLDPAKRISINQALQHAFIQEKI
Description: as §2, §3, §4

in vivo = conditions: female, CD-1, mouse, serum, po, 30 mg/kg
[6] = Oral PK of 15u and 15u_D6, female CD-1 mice; conditions: 30 mg/kg, AUC within the first eight hours

Row | SMILES | MYC-CAP-CR cell growth (MYC-CAP-CR cells [1]) | MYC-CaP-CR colony formation (MYC-CAP-CR cells [2]) | MYC-CaP-CR tumor volume and weight (MYC-CaP-CR tumors) | IC50 [3] | survival after removal of the primary 4T1 tumor [4] | 22rv1 growth in castrated mice [5] | IC50 (CDK8/19) | % Ctrl (CDC2L5) | % Ctrl (FLT3(ITD)) | % Ctrl (FLT3(ITD, D835V)) | % Ctrl (FLT3(ITD, F691L)) | % Ctrl (PFCDPK1(P. falciparum)) | % Ctrl (PFPK5(P. falciparum)) | % Ctrl (PKNB(M. tuberculosis)) | % Ctrl (PRP4) | AUC(0-t) (in vivo) | PK of the D6 derivative compared with 15u [6]
1 | CNC(=O)c1ccc(N2C(=S)N(c3ccc(C#N)c(C(F)(F)F)c3)C(=O)C2(C)C)cc1F [enzalutamide] | paradoxically stimulated the growth | decreased MYC-CaP-CR colony formation | modest effect |  |  |  |  |  |  |  |  |  |  |  |  |  | 
2 | CN1CCN(C(=O)c2ccc3cc(CCNc4ncnc5ccc(C#N)cc45)ccc3c2)CC1 [Senexin B, reference compound] | little effect | decreased MYC-CaP-CR colony formation |  | 255 nM | statistically significant but moderate increase in survival | significantly inhibited 22rv1 growth |  |  |  |  |  |  |  |  |  |  | 
3 | [2H]C([2H])([2H])N(C(=O)c1ccc(N2CCCN(c3ccnc4sc(C(N)=O)c(N)c34)CC2)cc1)C([2H])([2H])[2H] [Compound 15u_D6, 3-amino-4-(4-(4-(bis(methyl-d3)carbamoyl)phenyl)-1,4-diazepan-1-yl)thieno[2,3-b]pyridine-2-carboxamide] |  |  |  |  |  |  | 7.7 nM | 80 % Ctrl | 72 % Ctrl | 34 % Ctrl | 75 % Ctrl | 61 % Ctrl | 67 % Ctrl | 90 % Ctrl | 88 % Ctrl | 7400 ng·h/mL | slightly improved the PK

From patent US20220226343A1, “3-AMINO-4-[4-[4 (DIMETHYLCARBAMOYL) PHENYL]-1,4-DIAZEPAN-1-YL]THIENO[2,3-B]PYRIDINE-2-CARBOXAMIDE FOR USE IN CANCER THERAPY AND FORMULATIONS COMPRISING THE SAME” (University of South Carolina, priority 2019, published 2022)
